Measurements published in patent US20110033430A1, “METHODS FOR THE INDUCTION OF A CELL TO ENTER THE ISLET 1+ LINEAGE AND A METHOD FOR THE EXPANSION THEREOF” (THE GENERAL HOSPITAL CORPORATION, priority 2007, published 2011).
Entries after “also recorded” stand apart in the source; their conditions may differ.

Legend:
[1] = tested on: postnatal isl1+ cardiovascular progenitors; test: Expansion of postnatal isl1+ cardiovascular progenitors, isl1 immunostaining; type: cell-based, mouse; set-up: increase of number of isl1+ progenitors versus control: dose or concentration left out as unconfirmed; conditions: for number of isl1+ progenitors: isl1 immunostaining, versus control
Protocol: Immunohistochemical Analyses and lacZ Staining. Cells in culture or paraffin embedded sections were fixed with 4% paraformaldehyde and subjected to immunostaining. For mouse embryo cryosections, they were saturated with 20% sucrose followed by section and 2% PFA fix for 10 min at room temperature. The following primary antibodies were used in this study: isl1 (mouse monoclonal antibody, clone 39.4D5, clone 2D6 (Developmental Studies Hybridoma Bank, 1:100), cardiac troponin T (mouse monoclonal antibody, NeoMarkers, 1:200), smooth muscle myosin heavy chain (rabbit polyclonal, Biomedical Technologies Inc., 1:100), smooth muscle actin (mouse monoclonal, clone 1A4, Dako, 1:100; rabbit polyclonal, Abcam), phosphohistone H3 (rabbit polyclonal, Upstate). Alexa Fluor 488- or Alexa Fluor 594-conjugated secondary antibodies specific to the appropriate species were used (Molecular Probes, 1:350). 3D reconstruction was done using Winsuf from Surfdriver Software. For immunoperoxidase staining, the VECTASTAIN ABC® system (VECTOR Laboratories) was used, accordingly to the vendors' instructions. 5 μm frozen sections and cultured cells were fixed with 0.2% and 0.05% glutaraldehyde respectively for 10 min at 4° C. followed by 3 times wash with PBS. LacZ stainings were then performed on these samples by incubating with X-Gal solution containing 40 mM HEPES, pH 7.4, 5 mM K3(Fe(CN)6), 5 mM K4(Fe(CN)6), 2 mM MgCl2, 15 mM NaCl, and 1 mg/ml X-Gal. For LacZ staining on EB-derived clones expanded on CMC, 0.02% NP-40 was added to the X-Gal solution for better permeabilization. When combining LacZ staining with immunoperoxidase analyses, samples were processed first for LacZ staining at room temperature over night, followed by a re-fixation with 4% paraformaldehyde prior to the immunoperoxidase stainings for specific epitopes or by re-fixation with 2% gluteraldehyde to perform EM studies.
Statistic Analysis. Data were analyzed with two-tailed Student's t test and the results reported are statistically significant with p value <0.05. Standard error of the mean (SEM) is given for each mean value. For immunofluorescent analyses for postnatal isl1^+ cardiovascular progenitors, the cells within the whole well in an 8-well chamber slide were examined for Isl1 expression to obtain better statistic comparison.
Although there was only a small increase over the control, the effect of these compounds was highly reproducible and statistically significant (p<0.05, 0.01, or 0.001, FIG. 2C). […] Two of these compounds were unknown (compound A and compound B), and the third was 6-bromoindirubin-3′-oxime (BIO), previously shown to be an inhibitor of GSK-3 (Meijer et al., 2003). BIO has been recently shown to promote self-renewal of both human and mouse ES cells through activation of the wnt/β-catenin pathway in combination with other signaling inputs (Sato et al., 2004). The inventors explored the role of BIO on the renewal of isl1^+ progenitors.
Wnt/β-Catenin Pathway Plays a Pivotal Role in the Control of Isl1+ Progenitor Expansion. […] The inventors examined whether Wnt3a, a well-established ligand in the Wnt/β-catenin pathway (Logan and Nusse, 2004), was able to expand postnatal isl1^+ progenitors.

[2] = tested on: anterior heart field isl1+ progenitors (AHF-GFP ES cells); test: Expansion of ES cell-derived anterior heart field GFP+/isl1+ cells on CMC feeder, FACS; type: cell-based, mouse; conditions: 7 days on CMC feeder, versus control
Protocol: Differentiation was induced by forming embryoid bodies (EB's) in hanging drops of 600 cells in 15 μL of media without LIF. On day 6, the EB's were trypsinized into single cell suspension and sorted on the basis of GFP expression using flow cytometry. GFP positive cells were plated on a neonatal cardiac mesenchymal feeder layer for 7 days with one of four conditions: DMSO, BIO, and conditioned media from either control cells (L-Cells) or cells overexpressing wnt3A. After 7 days of expansion on the cardiac mesenchymal feeder layer, the cells were trypsinized and FACS sorted. Differentiation of the GFP positive cells was triggered as follow: into myocytes, on fibronectin by using DMEM/M199 (4:1 ratio) medium containing 10% horse serum and 5% FBS; into SM cells, on fibronectin by using DMEM/F12 containing B27 supplement, 2% FBS, and 10 ng/ml EGF.
To directly determine whether Wnt ligands are secreted from the CMC to promote the renewal of isl1^+ progenitors in a paracrine manner, the inventors developed an in vitro reconstitution of the mesenchymal niche.
To further characterize the nature of the CMC-derived cues, the inventors tested the ability of Wnt3a to reproduce this effect.

CMC = test: Cleaved caspase-3 immunostaining (apoptosis); type: cell-based, mouse; conditions: treated CMC
Description: To further validate the specificity of BIO function, the inventors tested two other ATP-competitive GSK-3-specific inhibitors: an acetoxime analog of BIO and 1-Azakenpaullone (Kunick et al., 2004; Meijer et al., 2003). […] Taken together, the inventors have discovered that BIO promotes the expansion of isl1+ progenitors by inhibiting GSK-3 activity.

[3] = tested on: human neonatal isl1+ progenitors; test: Expansion of human neonatal isl1+ progenitors, isl1 immunostaining; type: cell-based; conditions: human neonatal CMC, 4 days
Protocol: Isolation and Cell Culture Conditions of Human Postnatal Cardiac Progenitors. Biopsies are cut in small pieces and washed in solution A (10 mM Hepes, 35 mM NaCl, 10 mM glucose, 134 mM sucrose, 16 mM Na2HPO4, 25 mM NaHCO3, 7.75 mM KCl, 1.18 mM KH2PO4, pH 7.4), supplemented with 30 mM 2,3 butanedione 2-monoxime and 0.5 mM EGTA. First digestion step is performed in solution A supplemented with 0.5% BSA, 200 UI/ml of collagenase type II (Worthington) and 6 UI/ml protease type XXIV (Sigma) for 20 min at 37° C. to remove red blood cells and cell debris. Four digestion steps are performed in solution A supplemented with 400 UI/ml collagenase type V for 20 min at 37° C. and centrifuged at 30×g for 1 min. The supernatant is neutralized from the collagenase by adding ⅕ of NCS (newborn calf serum) and are centrifuged at 1300 rpm for 3-5 min. Pellet is resuspended in DMEM supplemented with 10% NCS, 5% FBS and Pen-Strep, and cells are seeded on chamber slide. BIO was added to the culture at different doses in complete progenitor medium and cultured for 4 days prior to immunostaining for Isl1.
In order to test whether BIO was capable of expanding human neonatal isl1^+ progenitors, human neonatal CMC were isolated from the biopsies of patients with congenital heart defects into single cells and cultured for 4 days in the presence or absence of BIO.

[4] = tested on: postnatal isl1+ progenitors in cardiac mesenchymal cells (CMC); test: High-throughput chemical screening: β-gal activity quantified by luminescence (Beto-Glo); type: cell-based, mouse; conditions: CMC with isl1+ progenitors, 4 days treatment, versus DMSO control
Protocol: Progenitors and High-Throughput Chemical Screening. […] Briefly, 30-40 hearts from 1-5 day-old isl1-mER-Cre-mER/R26R pups were used to prepare CMC, containing isl1+ progenitors marked by β-galactosidase. 4-OH-TM (Sigma), active form of tamoxifen, was added to the culture 1 day after plating at 1 μm. These were expanded for 7 days, trypsinized, and seeded at a density of 3,000 cells per well in 384-well plates.
Isolation of Murine Postnatal Cardiac Progenitors and High-throughput Chemical Screening. […] Briefly, 30-40 hearts from 1-5 day-old is1-mER-Cre-mER/R26R pups were used to prepare CMC, containing isl1^+ progenitors marked by β-galactosidase. 4-OH-TM (Sigma), active form of tamoxifen, was added to the culture 1 day after plating at 1 μm. These were expanded for 7 days, then trypsinized, and seeded at a density of 3,000 cells per well in a 384-well plate.
To find cardiac mesenchymal cells (CMC)-derived environmental cues involved in the renewal of isl1+ progenitors, the inventors developed a high-throughput chemical screening system, based on the coculture of CMC with postnatal isl1+ progenitors (FIG. 2A). […] The inventors used this library to screen for small molecules that would expand the rare population of postnatal isl1+ progenitors.

other protein kinases = conditions: Plotkin et al., 2003; cited from earlier work
murine Wls/Evi = molecular target: T1, murine Wls/Evi (Mus musculus, UniProt Q6DID7); test: Wnt reporter (superTOPFLASH) coculture with siRNA-transfected Wnt3a-producing cells, luciferase; type: cell-based; conditions: coculture with transfected Wnt3a-secreting cells, versus control
T1 construct: endogenous in cells; host or cells: Wnt3a-producing (Wnt3a-secreting) cell line (ATCC), cocultured with superTOPFLASH Wnt reporter cells
T1 sequence (Q6DID7 1-541): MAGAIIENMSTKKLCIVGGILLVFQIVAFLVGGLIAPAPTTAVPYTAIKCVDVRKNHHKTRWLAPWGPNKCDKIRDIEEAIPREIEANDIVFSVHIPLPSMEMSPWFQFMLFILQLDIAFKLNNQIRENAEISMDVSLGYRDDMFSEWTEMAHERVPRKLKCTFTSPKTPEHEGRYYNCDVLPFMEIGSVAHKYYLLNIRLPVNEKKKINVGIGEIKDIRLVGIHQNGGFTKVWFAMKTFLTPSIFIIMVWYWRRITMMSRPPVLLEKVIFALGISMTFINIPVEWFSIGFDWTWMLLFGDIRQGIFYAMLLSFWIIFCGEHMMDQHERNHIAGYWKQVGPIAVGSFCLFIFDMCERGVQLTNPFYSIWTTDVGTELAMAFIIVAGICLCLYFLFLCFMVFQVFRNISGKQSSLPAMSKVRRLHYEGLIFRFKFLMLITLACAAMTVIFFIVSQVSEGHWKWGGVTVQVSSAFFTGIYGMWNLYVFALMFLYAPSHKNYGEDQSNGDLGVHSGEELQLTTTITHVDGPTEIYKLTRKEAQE
Description: Production of Reagents for Wnt Pathway. Wnt3a or control-conditioned medium was produced as following. A Wnt3a-secreting cell line (ATCC) was allowed to grow to conflency and subcultured at 1:20 ratio prior to replenish with fresh medium. Three batches of conditioned medium were harvested every 48 hrs. Dkk1-conditioned medium was produced by transiently transfecting a Dkk1-expressing cDNA (generously provided by Dr. Randall T. Moon) into the HEK293T cell line with FuGENE 6 (Roche). The supernatant was harvested 72 hrs after transfection. A Wnt-reporter cell line, superTOPFLASH, was a generous gift from Dr. Randall T. Moon.
Small hairpin RNAs (shRNAs) oligonucleotide sequences were designed based on the following target sequences: siWLS-A ([…]) (SEQ ID NO:1) and siWLS-B (GGGTTACCGTGATGATATG, (SEQ ID NO:2) and subcloned into the retro-viral vector, RNAi-Ready pSIREN-RetroQ-DsRed-Express (Clontech) according to vendor's instructions. Negative control shRNA annealed oligonucleotide was provided by the vendor and cloned to the same vector. Retro-viral siRNAi particles were produced by transiently transfect these vectors into the packaging cell line EcoPack 2-293 cells with GENE 6 (Roche). Viral supernatant was harvested 72 hrs after transfection.
The inventors confirmed this effect by blocking the secretion of Wnt ligands from the CMC. […]

[5] = tested on: isl1-nlacZ knockin ES cell-derived precursors; test: Prespecification of mesodermal precursors toward MICPs on CMC feeder, single β-gal+ cells after 24 hr; type: cell-based, mouse; conditions: 24 hr on CMC feeder, versus control
Protocol: Immunohistochemical Analyses and lacZ Staining. Cells in culture or paraffin embedded sections were fixed with 4% paraformaldehyde and subjected to immunostaining. For mouse embryo cryosections, they were saturated with 20% sucrose followed by section and 2% PFA fix for 10 min at room temperature. The following primary antibodies were used in this study: isl1 (mouse monoclonal antibody, clone 39.4D5, clone 2D6 (Developmental Studies Hybridoma Bank, 1:100), cardiac troponin T (mouse monoclonal antibody, NeoMarkers, 1:200), smooth muscle myosin heavy chain (rabbit polyclonal, Biomedical Technologies Inc., 1:100), smooth muscle actin (mouse monoclonal, clone 1A4, Dako, 1:100; rabbit polyclonal, Abcam), phosphohistone H3 (rabbit polyclonal, Upstate). Alexa Fluor 488- or Alexa Fluor 594-conjugated secondary antibodies specific to the appropriate species were used (Molecular Probes, 1:350). 3D reconstruction was done using Winsuf from Surfdriver Software. […]
The wnt/β-Catenin Pathway Regulates the Prespecification, Expansion, and Differentiation of Isl1+ Cardiovascular Progenitors. […] To score the effect of the CMC feeder on the prespecification of mesodermal precursors toward MICPs, the inventors quantified the single b-gal^+ cells 24 hr after treatment with various reagents (FIG. 7A). […]

With `O=C1Cc2c([nH]c3ccc(Br)cc23)-c2ncccc2N1` [1-Azakenpaullone] the “number of isl1+ progenitors” value [1] was “substantially increased”.
With `O=C1Nc2cc(Br)ccc2/C1=C1/Nc2ccccc2/C1=N\O` [BIO, 6-bromoindirubin-3′-oxime] the “increase of number of isl1+ progenitors versus control” value [1] was 7 fold, the “cluster formation of isl1+ progenitors, increase versus control” value ([1]; BIO at 2.5 μM) was 11.6 fold and the “number of isl1+ progenitors” value [1] was “substantially increase; also recorded: increased the number of isl1^+ progenitors in a dose-dependent manner”. For the same compound, the “formation of isl1+ clusters” value ([1]; versus control treated samples) was “promoted isl1^+ progenitors to form large clusters”, the “expansion of GFP+/Isl1+ anterior heart field cells” value [2] was “marked expansion; also recorded: greater expansion” and the “apoptosis, cleaved caspase-3 immunostaining” value (CMC) was “no appreciable apoptosis”. For the same compound, the “number of human Isl1+ progenitors” value [3] was “markedly increased” and the “β-gal activity (luciferase activity)” value [4] was “significantly increase”.
With `CC(=O)O/N=C1/C(=C2/C(=O)Nc3cc(Br)ccc32)Nc2ccccc21` [acetoxime analog of BIO] the “number of isl1+ progenitors” value [1] was “substantially increased”.
In the case of “GSK-3 peptide inhibitor: cell-permeable and substrate-competitive GSK-3 peptide inhibitor (GKEAPPAPPQSP)”, the “number of isl1+ progenitors” value [1] is given as “significantly expand” and the “inhibitory effect on other protein kinases” value (other protein kinases) is given as “negligible inhibitory effect”.
With “siWLS-A: siRNA/shRNA against murine Wls/Evi, target sequence CACAAATCCTTTCTACAGTAT (the letters are possibly those of the target site)” the “luciferase activity of Wnt reporter cells (Wnt3a secretion)” value (murine Wls/Evi) was “significant reduction; also recorded: significantly decreased” and the “formation of MICPs (single β-gal+ cells)” value [5] was “significantly increased”.
With “siWLS-B: siRNA/shRNA against murine Wls/Evi, target sequence GGGTTACCGTGATGATATG (the letters are possibly those of the target site)” the “luciferase activity of Wnt reporter cells (Wnt3a secretion)” value (murine Wls/Evi) was “significant reduction; also recorded: significantly decreased”.
